Active and inactive are the calls of the source. No cut-off for these calls is given here.
Legend:
[1] = Acute toxicity in 12 hr fasted ICR mouse assessed as toxic reaction at 2000 mg/kg, po measured daily for 7 days; assay type: organism-based; conditions: in vivo, 168 h, time 7 day
[2] = Stability of compound in human liver microsome assessed as intrinsic clearance by HPLC analysis; assay type: ADME; conditions: liver microsomes, read-out: CLH
[3] = target: Cyclin-dependent kinase 8 (Homo sapiens) (UniProt P49336); assay: Binding affinity to CDK8 in human HCT-116 cells assessed as increase in thermal stability tolerance at 10 uM treated for 4 hrs followed by compound washout by CETSA assay; assay type: cell-based
Cyclin-dependent kinase 8 (Homo sapiens), sequence (P49336 whole entry): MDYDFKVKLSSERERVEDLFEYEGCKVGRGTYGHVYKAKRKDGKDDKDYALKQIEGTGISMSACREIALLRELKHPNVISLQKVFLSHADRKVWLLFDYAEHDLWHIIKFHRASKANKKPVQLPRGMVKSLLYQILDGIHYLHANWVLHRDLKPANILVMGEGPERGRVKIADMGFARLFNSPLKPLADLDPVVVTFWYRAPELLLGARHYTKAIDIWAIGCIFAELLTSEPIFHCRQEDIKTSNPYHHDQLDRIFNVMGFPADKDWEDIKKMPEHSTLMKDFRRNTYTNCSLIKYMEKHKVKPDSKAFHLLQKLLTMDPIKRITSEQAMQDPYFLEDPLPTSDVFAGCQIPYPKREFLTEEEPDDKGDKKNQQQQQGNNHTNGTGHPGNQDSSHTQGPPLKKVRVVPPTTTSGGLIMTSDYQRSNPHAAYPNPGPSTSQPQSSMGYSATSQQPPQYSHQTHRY

[4] = system: BMDC; assay: Anti-inflammatory activity against R848-stimulated mouse BMDC cells assessed as upregulation of IL-10 production by ELISA method; assay type: functional, cell-based
[5] = target: Cyclin-dependent kinase 8 (Homo sapiens) (UniProt P49336); assay: Inhibition of CDK8 in human HCT-116 cells assessed as STAT-1 phosphorylation at Ser727 at 1 to 4 uM treated for 24 hrs by western blot analysis; assay type: cell-based; conditions: dose 1-4 µM
[6] = target: MAP kinase p38 (Mus musculus) (UniProt P47811+O08911+Q9WUI1+Q9Z1B7); assay: Inhibition of P38 phosphorylation in R848-stimulated mouse BMDC cells at 1 to 4 uM treated for 2 hrs followed by R848 stimulation for 12 hrs by western blot analysis; assay type: cell-based; conditions: dose 1-4 µM, time 14.0 hrs
[7] = Acute toxicity in 12 hr fasted ICR mouse assessed as effect on heart at 2000 mg/kg, po measured after 7 days by hematoxylin and eosin staining based histopathological analysis; assay type: organism-based; conditions: in vivo, 168 h, time 7 day
[8] = Acute toxicity in 12 hr fasted ICR mouse assessed as effect on lung at 2000 mg/kg, po measured after 7 days by hematoxylin and eosin staining based histopathological analysis; assay type: organism-based; conditions: in vivo, 168 h, time 7 day
[9] = Half life in Sprague-Dawley rat at 5 mg/kg, iv measured for 3 to 1440 mins by HPLC analysis; assay type: ADME, organism-based; conditions: in vivo, time 3-1440 min
[10] = MRT in Sprague-Dawley rat at 10 mg/kg, po measured for 3 to 1440 mins by HPLC analysis; assay type: ADME, organism-based; conditions: in vivo, time 3-1440 min
[11] = Cmax in Sprague-Dawley rat at 5 mg/kg, iv measured for 3 to 1440 mins by HPLC analysis; assay type: ADME, organism-based; conditions: in vivo
[12] = Cmax in Sprague-Dawley rat at 10 mg/kg, po measured for 3 to 1440 mins by HPLC analysis; assay type: ADME, organism-based; conditions: in vivo
[13] = AUC (0 to infinity) in Sprague-Dawley rat at 5 mg/kg, iv measured for 3 to 1440 mins by HPLC analysis; assay type: ADME, organism-based; conditions: in vivo
[14] = system: Mus musculus; assay: Anti-inflammatory activity in DSS-induced C57BL/6 mouse model of inflammatory bowel disease assessed as reduction in colitis development by measuring disease activity index score at 5 to 20 mg/kg, po administered measured after 7 days; assay type: functional, organism-based; conditions: dose 5-20 mg/kg, time 7.0 day, DDE = dose-dependent effect
[15] = system: Mus musculus; assay: Anti-inflammatory activity in DSS-induced C57BL/6 mouse model of inflammatory bowel disease assessed as increase in colon length at 5 to 20 mg/kg, po daily measured after 10 days; assay type: functional, organism-based; conditions: dose 5-20 mg/kg, time 10.0 day
[16] = system: Mus musculus; assay: Anti-inflammatory activity in C57BL/6 mouse model of inflammatory bowel disease assessed as reduction in DSS-induced cellular infiltration in colon tissue at 5 to 20 mg/kg, po daily measured after 10 days by hematoxylin and eosin staining based histopathological analysis; assay type: functional, organism-based; conditions: dose 5-20 mg/kg, time 10.0 day
[17] = system: Mus musculus; assay: Anti-inflammatory activity in C57BL/6 mouse model of inflammatory bowel disease assessed as reduction in DSS-induced crypt loss in colon tissue at 5 to 20 mg/kg, po daily measured after 10 days by hematoxylin and eosin staining based histopathological analysis; assay type: functional, organism-based; conditions: dose 5-20 mg/kg, time 10.0 day
[18] = system: Mus musculus; assay: Anti-inflammatory activity in C57BL/6 mouse model of inflammatory bowel disease assessed as decrease in DSS-induced IL-6 levels in serum at 5 to 20 mg/kg, po daily measured after 10 days by ELISA method; assay type: functional, organism-based; conditions: dose 5-20 mg/kg, time 10.0 day
[19] = system: Mus musculus; assay: Anti-inflammatory activity in C57BL/6 mouse model of inflammatory bowel disease assessed as decrease in DSS-induced TNF-alpha levels in serum at 5 to 20 mg/kg, po daily measured after 10 days by ELISA method; assay type: functional, organism-based; conditions: dose 5-20 mg/kg, time 10.0 day
[20] = system: Mus musculus; assay: Anti-inflammatory activity in C57BL/6 mouse model of inflammatory bowel disease assessed as decrease in DSS-induced TNF-alpha levels in colon tissue at 5 to 20 mg/kg, po daily measured after 10 days by ELISA method; assay type: functional, organism-based; conditions: dose 5-20 mg/kg, time 10.0 day
[21] = system: Mus musculus; assay: Anti-inflammatory activity in C57BL/6 mouse model of inflammatory bowel disease assessed as increase in DSS-induced IL-10 levels in colon tissue administered orally daily measured after 10 days by ELISA method; assay type: functional, organism-based; conditions: dose 5-20 mg/kg, route po, time 10.0 day
[22] = system: Mus musculus; assay: Anti-inflammatory activity in C57BL/6 mouse model of inflammatory bowel disease assessed as decrease in DSS-induced ERK phosphorylation in colon tissue at 5 to 20 mg/kg, po measured after 10 days by western blot analysis; assay type: functional, organism-based; conditions: dose 5-20 mg/kg, time 10.0 day, DDE = dose-dependent effect
[23] = system: Mus musculus; assay: Anti-inflammatory activity in C57BL/6 mouse model of inflammatory bowel disease assessed as decrease in DSS-induced JNK phosphorylation in colon tissue at 5 to 20 mg/kg, po measured after 10 days by western blot analysis; assay type: functional, organism-based; conditions: dose 5-20 mg/kg, time 10.0 day, DDE = dose-dependent effect
[24] = system: Mus musculus; assay: Anti-inflammatory activity in C57BL/6 mouse model of inflammatory bowel disease assessed as decrease in DSS-induced P38 phosphorylation in colon tissue at 5 to 20 mg/kg, po measured after 10 days by western blot analysis; assay type: functional, organism-based; conditions: dose 5-20 mg/kg, time 10.0 day, DDE = dose-dependent effect
[25] = system: Mus musculus; assay: Anti-inflammatory activity in DSS-induced C57BL/6 mouse model of inflammatory bowel disease assessed as increase in IL-10 expression in colon tissue at 5 to 20 mg/kg, po measured after 10 days by western blot analysis; assay type: functional, organism-based; conditions: dose 5-20 mg/kg, time 10.0 day
[26] = system: Mus musculus; assay: Anti-inflammatory activity in DSS-induced C57BL/6 mouse model of inflammatory bowel disease assessed as increase in STAT3 phosphorylation in colon tissue at 5 to 20 mg/kg, po measured after 10 days by western blot analysis; assay type: functional, organism-based; conditions: dose 5-20 mg/kg, time 10.0 day

For `CCc1ccccc1NC(=O)c1cncc(-c2ccc(C(=O)N3CCNCC3)cc2)c1`, the Activity [1] was “Non-Toxic”, the microsomal CLint [2] was 5.5 µL/min/mg and the Activity [3] was “Active”. The Activity [4] was “Active”, the inhibition [5] was “Active” and the inhibition [6] was “Active”. The Activity [7] was “Non-Toxic”, the Activity [8] was “Non-Toxic” and the half-life [9] was 1.83 h. It also gave an MRT [10] of 2.03 h, a Cmax [11] of 528 ng/mL and a Cmax [12] of 237 ng/mL. For the same molecule, the AUC(0-inf) [13] was 642 ng·h/mL, the Activity [14] was “Dde” and the Activity [15] was “Active”. The Activity [16] was “Active”, the Activity [17] was “Active” and the Activity [18] was “Active”. For the same molecule, the Activity [19] was “Active”, the Activity [20] was “Active” and the Activity [21] was “Active”. The Activity [22] was “Dde”, the Activity [23] was “Dde” and the Activity [24] was “Dde”. The Activity [25] was “Active” and the Activity [26] was “Active”.

Source: ChEMBL document CHEMBL5154907, “Discovery and Anti-Inflammatory Activity Evaluation of a Novel CDK8 Inhibitor through Upregulation of IL-10 for the Treatment of Inflammatory Bowel Disease In Vivo” (J Med Chem, 2022)
